Results reported in ChEMBL document CHEMBL5579840, “Optimization of diastereomeric dihydropyridines as antimalarials” (Eur J Med Chem, 2024).
The source made the active and inactive calls. The rule behind the calls is not given here.

How the values were obtained:
[1] = test system: Plasmodium berghei; assay: Antiplasmodial activity against Plasmodium berghei KBG-173 infected in male mouse assessed as inhibition of parasitemia at 50 mg/kg, po administered as single dose on day 1 post exposure and measured on day 6 post exposure relative to control; format: functional; conditions: KBG-173, 72 h, time 3 day
[2] = test system: Plasmodium falciparum; assay: Antimalarial activity against chloroquine-sensitive Plasmodium falciparum 3D7 infected in erythroctes incubated for 72 hrs by SYBR green 1 based spectrofluorometer; format: functional, organism-based, Erythrocyte
[3] = test system: Plasmodium berghei; assay: Antiplasmodial activity against Plasmodium berghei KBG-173 infected in male mouse assessed as inhibition of parasitemia at 50 mg/kg, po administered as single dose on day 1 post exposure and measured on day 3 post exposure relative to control; format: functional; conditions: KBG-173, 72 h, time 3 day
[4] = test system: Plasmodium falciparum; assay: Antimalarial activity against chloroquine-resistant Plasmodium falciparum K1 infected in erythroctes incubated for 72 hrs by SYBR green 1 based spectrofluorometer; format: functional, organism-based, Erythrocyte
[5] = test system: Plasmodium falciparum; assay: Antimalarial activity against chloroquine,pyrimethamine,mefloquine and atovaquine-resistant Plasmodium falciparum TM90-C2B infected in erythroctes incubated for 72 hrs by SYBR green 1 based spectrofluorometer; format: functional, organism-based
[6] = test system: Plasmodium falciparum; assay: Antimalarial activity against chloroquine and pyrimethamine-resistant Plasmodium falciparum W2 infected in erythroctes incubated for 72 hrs by SYBR green 1 based spectrofluorometer; format: functional, organism-based
[7] = Cytotoxicity against mouse J774.A1 cells; format: toxicity, cell-based
[8] = Plasmodium falciparum, 3D7, Erythrocyte, 72 h
[9] = Plasmodium falciparum, K1, Erythrocyte, 72 h

Row | SMILES | inhibition in vivo at 50 mg/kg [1] [%] | EC50 ([2]; erythrocyte) [µM] | inhibition in vivo at 50 mg/kg [3] [%] | EC50 ([4]; erythrocyte) [µM] | Activity [5] | Activity [6] | EC50 [7] [µM] | EC50 [2, 8] [µM] | EC50 [4, 9] [µM]
1 | CCOC(=O)C1=C(C)NC2=C(C(=O)OC(c3ccc(OC)c(OC)c3)C2)C1c1ccccc1Cl (stereo in doubt; 3B) | 77.6 | 0.26 | 100 | 0.0539 |  |  |  |  | 
2 | CCOC(=O)C1=C(C)NC2=C(C(=O)OC(c3ccc(OC)c(OC)c3)C2)C1c1ccc(Cl)cc1 (stereo in doubt; 5B) |  |  |  |  | Active | Active |  |  | 
3 | CCOC(=O)C1=C(C)NC2=C(C(=O)OC(c3ccc(OC)c(OC)c3)C2)C1c1ccc([N+](=O)[O-])cc1 (stereo in doubt; 13A) |  | > 10 |  | > 10 |  |  | > 20 |  | 
4 | CCOC(=O)C1=C(C)NC2=C(C(=O)OC(c3ccccc3Cl)C2)C1c1ccccc1Cl (stereo in doubt; 18A) |  |  |  |  |  |  | > 20 | > 5.5 | > 5.5
5 | CCOC(=O)C1=C(C)NC2=C(C(=O)OC(c3ccc(Cl)cc3)C2)C1c1ccccc1Cl (stereo in doubt; 20A) |  | 0.51 |  | 0.56 |  |  | > 20 |  | 
6 | CCOC(=O)C1=C(C)NC2=C(C(=O)OC(c3cccc(C)c3)C2)C1c1ccccc1Cl (stereo in doubt; 22A) |  |  |  |  |  |  | > 20 | > 5 | > 5
7 | CCOC(=O)C1=C(C)NC2=C(C(=O)OC(c3ccc(C)cc3)C2)C1c1ccccc1Cl (stereo in doubt; 23A) |  |  |  | > 5 |  |  | > 20 | > 5 | 
8 | CCOC(=O)C1=C(C)NC2=C(C(=O)OC(c3ccccc3OC)C2)C1c1ccccc1Cl (stereo in doubt; 24A) |  |  |  |  |  |  | > 20 | > 6 | > 6
9 | CCOC(=O)C1=C(C)NC2=C(C(=O)OC(c3cccc(OC)c3)C2)C1c1ccccc1Cl (stereo in doubt; 25A) |  | 2.13 |  | > 7 |  |  | > 20 |  | 
10 | CCOC(=O)C1=C(C)NC2=C(C(=O)OC(c3ccc(OC)cc3)C2)C1c1ccccc1Cl (stereo in doubt; 26A) |  | > 7 |  | > 7 |  |  | > 20 |  | 
11 | COC(=O)C1=C(C)NC2=C(C(=O)OC(c3ccc(OC)c(OC)c3)C2)C1c1ccccc1Cl (stereo in doubt; 28A) |  | > 8.5 |  | > 8.5 |  |  | > 20 |  | 
12 | CCCOC(=O)C1=C(C)NC2=C(C(=O)OC(c3ccc(OC)c(OC)c3)C2)C1c1ccccc1Cl (stereo in doubt; 29A) |  | 2.36 |  | > 7 |  |  | > 20 |  | 
13 | COc1ccc(C2CC3=C(C(=O)O2)C(c2ccccc2Cl)C(C(=O)OC(C)(C)C)=C(C)N3)cc1OC (stereo in doubt; 30A) |  |  |  | > 13 |  |  | > 20 | > 13 | 
14 | COc1ccc(C2CC3=C(C(=O)O2)C(c2ccccc2Cl)C(C(=O)OCc2ccccc2)=C(C)N3)cc1OC (stereo in doubt; 31A) |  |  |  |  |  |  | > 20 | > 11.8 | > 11.8
15 | CCCC1=C(C(=O)OCC)C(c2ccccc2Cl)C2=C(CC(c3ccc(OC)c(OC)c3)OC2=O)N1 (stereo in doubt; 32A) |  | 0.811 |  | 0.418 |  |  | > 20 |  | 
16 | CCOC(=O)C1=C(C(=O)OCC)C(c2ccccc2Cl)C2=C(CC(c3ccc(OC)c(OC)c3)OC2=O)N1 (stereo in doubt; 33A) |  | 0.0381 |  | 0.0136 |  |  | > 20 |  | 
17 | CCOC(=O)C1=C(c2ccccc2)NC2=C(C(=O)CC(c3ccc(OC)c(OC)c3)C2)C1c1ccccc1Cl (stereo in doubt; 35A) |  | 3.72 |  | > 10.9 |  |  | > 20 |  | 
18 | CCOC(=O)C1=C(C)NC2=C(C(=O)CC(c3ccc(OC)c(OC)c3)C2)C1c1ccc(Cl)cc1 (stereo in doubt; 36A) |  | 0.264 |  | 0.221 |  |  | > 20 |  | 
19 | CCOC(=O)C1=C(C)NC2=C(C(=O)CC(c3ccc(OC)c(OC)c3)C2)C1c1ccc(Cl)cc1C (stereo in doubt; 37A) |  | 0.094 |  | 0.0826 |  |  | > 20 |  | 
20 | CCOC(=O)C1=C(C)NC2=C(C(=O)CC(c3ccc(OC)c(OC)c3)C2)C1c1ccc(Cl)cc1C (stereo in doubt; 37B) | < 10 | 0.0145 | < 10 | 0.0159 |  |  |  |  | 
21 | CCOC(=O)C1=C(C)NC2=C(C(=O)OC(c3ccc(OC)c(OC)c3)C2)C1c1ccc(Cl)cc1C (stereo in doubt; 38A) |  | > 4.7 |  | 0.992 |  |  | > 20 |  | 
22 | CCOC(=O)C1=C(C)NC2=C(C(=O)OC(c3ccc(OC)c(OC)c3)C2)C1c1ccc(Cl)cc1C (stereo in doubt; 38B) | < 10 | 0.0106 | < 10 | 0.0291 |  |  |  |  | 

Row | SMILES | inhibition in vivo at 50 mg/kg [1] [%] | EC50 ([2]; erythrocyte) [µM] | inhibition in vivo at 50 mg/kg [3] [%] | EC50 ([4]; erythrocyte) [µM] | Activity [5] | Activity [6] | EC50 [7] [µM] | EC50 [2, 8] [µM] | EC50 [4, 9] [µM]
23 | CCOC(=O)C1=C(C)NC2=C(C(=O)CC(c3ccc(Cl)c(OC)c3)C2)C1c1ccccc1Cl (stereo in doubt; 39A) |  | 0.63 |  | 0.397 |  |  | > 20 |  | 
24 | CCOC(=O)C1=C(C)NC2=C(C(=O)CC(c3ccc(Cl)c(OC)c3)C2)C1c1ccccc1Cl (stereo in doubt; 39B) | < 10 | 0.0185 | < 10 | 0.0223 |  |  |  |  | 
25 | CCOC(=O)C1=C(C)NC2=C(C(=O)OC(c3ccc(Cl)c(OC)c3)C2)C1c1ccccc1Cl (stereo in doubt; 40A) |  | > 7.7 |  | 2.87 |  |  | > 20 |  | 
26 | CCOC(=O)C1=C(C)NC2=C(C(=O)OC(c3ccc(Cl)c(OC)c3)C2)C1c1ccccc1Cl (stereo in doubt; 40B) | < 10 | 0.135 | 66 | 0.217 |  |  |  |  | 
27 | CCOC(=O)C1=C(C)NC2=C(C(=O)CC(c3ccc(Cl)c(OC)c3)C2)C1c1ccc(Cl)cc1C (stereo in doubt; 41A) |  | 0.55 |  | 0.385 |  |  | > 20 |  | 
28 | CCOC(=O)C1=C(C)NC2=C(C(=O)CC(c3ccc(Cl)c(OC)c3)C2)C1c1ccc(Cl)cc1C (stereo in doubt; 41B) | < 10 | 0.0094 | < 10 | 0.0097 |  |  |  |  | 
29 | CCOC(=O)C1=C(C)NC2=C(C(=O)OC(c3ccc(Cl)c(OC)c3)C2)C1c1ccc(Cl)cc1C (stereo in doubt; 42A) |  | > 13 |  | > 13 |  |  | > 20 |  | 
30 | CCOC(=O)C1=C(C)NC2=C(C(=O)OC(c3ccc(Cl)c(OC)c3)C2)C1c1ccc(Cl)cc1C (stereo in doubt; 42B) | 5.83 | 0.058 | 34 | 0.0384 |  |  |  |  | 
31 | CCCC1=C(C(=O)OCC)C(c2ccccc2Cl)C2=C(CC(c3ccc(OC)c(OC)c3)CC2=O)N1 (stereo in doubt; 43A) |  | 0.0286 |  | 0.0265 |  |  | > 20 |  | 
32 | CCCC1=C(C(=O)OCC)C(c2ccc(Cl)cc2C)C2=C(CC(c3ccc(OC)c(OC)c3)CC2=O)N1 (stereo in doubt; 44A) |  | 0.0983 |  | 0.0829 |  |  | > 20 |  | 
33 | CCCC1=C(C(=O)OCC)C(c2ccc(Cl)cc2C)C2=C(CC(c3ccc(OC)c(OC)c3)CC2=O)N1 (stereo in doubt; 44B) | 6.76 | 0.0034 | 34 | 0.0111 |  |  |  |  | 
34 | CCCC1=C(C(=O)OCC)C(c2ccc(Cl)cc2C)C2=C(CC(c3ccc(OC)c(OC)c3)OC2=O)N1 (stereo in doubt; 45A) |  | 0.148 |  | 0.102 |  |  | > 20 |  | 
35 | CCCC1=C(C(=O)OCC)C(c2ccc(Cl)cc2C)C2=C(CC(c3ccc(OC)c(OC)c3)OC2=O)N1 (stereo in doubt; 45B) | < 10 | 0.0051 | < 10 | 0.0039 |  |  |  |  | 
36 | CCCC1=C(C(=O)OCC)C(c2ccc(Cl)cc2C)C2=C(CC(c3ccc(Cl)c(OC)c3)CC2=O)N1 (stereo in doubt; 46A) |  | 0.319 |  | 0.244 |  |  | > 20 |  | 
37 | CCCC1=C(C(=O)OCC)C(c2ccc(Cl)cc2C)C2=C(CC(c3ccc(Cl)c(OC)c3)CC2=O)N1 (stereo in doubt; 46B) | < 10 | 0.0104 | < 10 | 0.0198 |  |  |  |  | 
38 | CCCC1=C(C(=O)OCC)C(c2ccc(Cl)cc2C)C2=C(CC(c3ccc(Cl)c(OC)c3)OC2=O)N1 (stereo in doubt; 47B) | < 10 | 0.0227 | < 10 | 0.0215 |  |  |  |  | 
39 | CCCC1=C(C(=O)OCC)C(c2ccc(Cl)cc2C)C2=C(CC(c3cc(OC)ccc3OC)CC2=O)N1 (stereo in doubt; 48A) |  | 0.542 |  | 0.228 |  |  | > 20 |  | 
40 | COCC1=C(C(=O)OC)C(c2ccc(Cl)cc2C)C2=C(CC(c3ccc(OC)c(OC)c3)CC2=O)N1 (stereo in doubt; 51A) |  | 0.0396 |  | 0.0216 |  |  | > 20 |  | 
41 | COCC1=C(C(=O)OC)C(c2ccc(Cl)cc2C)C2=C(CC(c3ccc(OC)c(OC)c3)CC2=O)N1 (stereo in doubt; 51B) | < 10 | 0.0025 | 100 | 0.0062 |  |  |  |  | 
42 | CCOC(=O)C1=C(C)NC2=C(C(=O)OC(c3cc(OC)c(OC)c(OC)c3)C2)C1c1ccccc1Cl (stereo in doubt; 54A) |  | 0.322 |  | 0.315 |  |  | > 20 |  | 
43 | COCC1=C(C(=O)OC)C(c2ccc(Cl)cc2)C2=C(CC(c3cc(OC)c(OC)c(OC)c3)OC2=O)N1 (stereo in doubt; 56A) |  | 0.061 |  |  |  |  | > 20 |  | 0.0624
44 | CCN(CC)Cc1cc(Nc2ccnc3cc(Cl)ccc23)ccc1O [AMODIAQUINE] | 100 |  | 100 |  |  |  |  |  | 
